These results are taken from paper PMC13013135, “[^99mTc]Tc-PSMA-HSG for PSMA-targeted Hybrid Surgical Guidance: a new addition to the PSMA-I&S/I&T family” (European Journal of Nuclear Medicine and Molecular Imaging, 2025).

For one series, the target named is PSMA (Homo sapiens, UniProt Q04609). The experiment in a line: Competitive binding (IC50) on LNCaP cells with ([^125I]I-BA)KuE as radioligand. The following applies: for IC50: LNCaP cells, ([^125I]I-BA)KuE radioligand, free mas3-chelator. The procedure: Competitive binding experiments (IC50) were carried out in accordance with an established protocol using PSMA-expressing LNCaP cells and ([^125I]I-BA)KuE as standard radioligand. […] Please see the Supplementary Material for experimental details. For IC50 determination, approximately 150.000 cells/well were seeded on 24-well plates one day prior to the experiment. For internalization studies, 125.000 cells/well in PDL-coated 24-well plates were used. Cell counting was carried out using a Corning cell counter (Cytosmart, Eindhoven, The Netherlands).

For series [1] the following is noted: cited from earlier work.

Read-outs that look alike come from different tables or passages of the source.

Chain of PSMA (Q04609 whole entry): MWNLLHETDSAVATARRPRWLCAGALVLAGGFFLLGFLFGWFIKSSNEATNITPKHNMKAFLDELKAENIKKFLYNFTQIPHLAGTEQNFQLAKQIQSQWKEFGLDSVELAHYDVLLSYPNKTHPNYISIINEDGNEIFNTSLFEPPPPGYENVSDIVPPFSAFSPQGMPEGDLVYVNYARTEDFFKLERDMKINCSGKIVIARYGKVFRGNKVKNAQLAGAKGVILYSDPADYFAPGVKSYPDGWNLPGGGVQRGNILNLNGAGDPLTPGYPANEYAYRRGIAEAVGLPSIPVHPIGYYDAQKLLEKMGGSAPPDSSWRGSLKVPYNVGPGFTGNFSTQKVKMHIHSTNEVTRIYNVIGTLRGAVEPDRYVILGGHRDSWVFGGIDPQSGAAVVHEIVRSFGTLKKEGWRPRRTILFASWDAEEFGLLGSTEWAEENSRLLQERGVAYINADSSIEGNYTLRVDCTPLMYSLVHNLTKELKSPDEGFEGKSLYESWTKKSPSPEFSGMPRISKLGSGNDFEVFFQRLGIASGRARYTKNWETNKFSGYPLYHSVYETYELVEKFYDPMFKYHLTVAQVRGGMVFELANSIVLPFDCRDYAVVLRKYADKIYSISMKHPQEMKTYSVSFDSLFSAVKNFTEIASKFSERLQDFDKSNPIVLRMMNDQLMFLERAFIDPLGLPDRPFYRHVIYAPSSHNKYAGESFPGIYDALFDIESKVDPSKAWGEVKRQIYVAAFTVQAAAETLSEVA

By IC50 is commonly meant the concentration at which inhibition is half-maximal. Regarding `CCN1/C(=C/C=C/C=C/C=C/C2=[N+](CCCCCC(=O)NCCCC[C@@H](NC(=O)[C@@H](CO)NC(=O)[C@@H](CO)NC(=O)[C@@H](CO)NC(=O)CSC(C)=O)C(=O)N[C@H](Cc3ccc(O)cc3)C(=O)N[C@H](Cc3ccc4ccccc4c3)C(=O)N[C@H](CCCCNC(=O)CCCCCCC(=O)NCCCC[C@H](NC(=O)N[C@@H](CCC(=O)O)C(=O)O)C(=O)O)C(=O)O)c3ccc(S(=O)(=O)[O-])cc3C2(C)C)C(C)(C)c2cc(S(=O)(=O)O)ccc21` [PSMA-HSG-Cy7-II], on PSMA, the “decrease in PSMA affinity compared to PSMA-HSG” value (from here on “decrease in PSMA affinity”) is given as “twofold decreased” and the half-maximal inhibitory concentration (IC50) amounted to 73.1 ± 11.1 nM.

Take `O=C([O-])CN(CCN(CC(=O)[O-])Cc1cc(CCC(=O)NCCCCCC(=O)NCCCC[C@H](NC(=O)N[C@@H](CCC(=O)O)C(=O)O)C(=O)O)ccc1[O-])Cc1cc(CCC(=O)O)ccc1[O-].[68Ga+3].[OH3+]` [[^68Ga]Ga-PSMA-11]: in series [1] (human, in vivo), the effective dose was 0.023 ± 0.004 mSv/MBq.

As for `O=C(O)CC[C@H](NC(=O)N[C@@H](CCCCNC(=O)c1ccc([18F])nc1)C(=O)O)C(=O)O` [[^18F]DCFPyL], the effective dose in series [1] (patients) is recorded as 0.0165 mSv/MBq.

Turning to `CC(=O)SCC(=O)N[C@H](CO)C(=O)N[C@H](CO)C(=O)N[C@H](CO)C(=O)N[C@H](CCCCNC(=O)CCCCCN1/C(=C/C=C/C=C/C2=[N+](C)c3ccc(S(=O)(=O)[O-])cc3C2(C)C)C(C)(C)c2cc(S(=O)(=O)O)ccc21)C(=O)N[C@H](Cc1ccc(O)cc1)C(=O)N[C@H](Cc1ccc2ccccc2c1)C(=O)N[C@H](CCCCNC(=O)CCCCCCC(=O)NCCCC[C@H](NC(=O)N[C@@H](CCCC(=O)O)C(=O)O)C(=O)O)C(=O)O` [Aad-PSMA-HSG], the “decrease in PSMA affinity” value at PSMA was “fifteen-fold reduction”.

Take `CC(=O)SCC(=O)N[C@H](CO)C(=O)N[C@H](CO)C(=O)N[C@H](CO)C(=O)N[C@H](CCCCNC(=O)CCCCC[N+]1=C(/C=C/C2=CC(=C/C=C3/N(C)c4ccc(S(=O)(=O)O)cc4C3(C)C)/CCC2)C(C)(C)c2cc(S(=O)(=O)[O-])ccc21)C(=O)N[C@H](Cc1ccc(O)cc1)C(=O)N[C@H](Cc1ccc2ccccc2c1)C(=O)N[C@H](CCCCNC(=O)CCCCCCC(=O)NCCCC[C@H](NC(=O)N[C@@H](CCC(=O)O)C(=O)O)C(=O)O)C(=O)O` [PSMA-HSG-Cy7-I]: at PSMA, the “decrease in PSMA affinity” value is listed as “twofold decreased” and the half-maximal inhibitory concentration (IC50) came out at 70.7 ± 10.8 nM.
